# Measured values taken from ChEMBL document CHEMBL1773003.
# Active and inactive are the calls of the source. No cut-off for these calls is given here.
# Assays:
# [1] = molecular target: Matrix protein 2 (Influenza A virus) (UniProt P06821); format: cell-based; settings: Influenza A virus (A/udorn/1972(H3N2)); Oocyte; 100 uM
# MDCK = assay: Cytotoxicity against MDCK cells after 72 hrs by MTS assay; format: cell-based, Canis lupus familiaris; settings: dog
# Matrix protein 2 = Matrix protein 2 (Influenza A virus, UniProt P06821); format: cell-based, Influenza A virus (A/udorn/1972(H3N2)), Oocyte
# Influenza A virus [2] = assay: Antiviral activity against Influenza A virus (A/Udorn/72) expressing wild-type matrix protein 2 infected in MDCK cells assessed as inhibition of plaque formation at 5 uM measured after 2 days; format: functional, organism-based; settings: Influenza A virus (A/udorn/1972(H3N2))
# [3] = Binding affinity to Influenza A virus (A/Udorn/72) transmembrane domain of matrix protein 2 (22 to 46) at pH 7.4 by circular dichroism analysis; parameters: species or system Influenza A virus (A/udorn/1972(H3N2))
# Influenza A virus [4] = assay: Inhibition of Influenza A virus matrix protein 2; settings: concentration not given here
# Matrix protein 2 (Influenza A virus), sequence (P06821 whole entry): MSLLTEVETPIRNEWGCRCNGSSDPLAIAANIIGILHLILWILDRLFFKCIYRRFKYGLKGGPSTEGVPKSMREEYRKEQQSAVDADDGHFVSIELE
# Matrix protein 2, sequence (P06821 whole entry): as above
Structure (SMILES),inhibition [1] [%],CC50 (MDCK) [µM],IC50 (Matrix protein 2) [µM],Activity (Influenza A virus [2]),Kd [3] [µM],inhibition (Influenza A virus [4]) [%]
CC(=N)NC12C3CCC4C3C3C(CCC31)C42,9.3,> 500,–,–,–,–
CNCC12C3CCC4C3C3C(CCC31)C42,14.7,224,–,–,–,–
NCC12CC3CC(CC1C3)C2,97.1,357,7.1,Active,–,–
C1=CC2C3C4C5C=CC4C24CNCC54C13,–,> 500,33.5,–,74.9,–
N=C(N)NCC12CC3CC(CC1C3)C2,97.2,–,–,Active,–,–
CC12CC3CC1(C)CC3(CN)C2,97.3,79,7.2,Active,–,–
NC12CC3CC(CC(C3)C1)C2 [AMANTADINE],91,–,–,Active,–,85
CC12CC3CC1(C)CC3(N)C2,93.6,> 500,–,Active,–,–
CNCC12CC3CC(CC1C3)C2,92.2,< 19.4,17.1,Active,–,–
C1C2C1C1C3C4C5C6CC6C4C14CNCC54C23 (stereo unspecified),86.5,61,–,Active,232,–
NC12CC3CC(CC(C3)O1)C2,88.2,> 500,29.2,–,91.6,–
CCN(CC)C12C3CCC4C3C3C(CCC31)C42,0,119,–,–,–,–
CC(N)C12CC3CC(CC1C3)C2 (racemic),93.2,256,12.7,Active,–,–
CNC12CC3CC(CC(C3)O1)C2,91.7,> 500,22.9,–,–,–
NC(N)=NCC12CC3CC(CC1C3)C2,–,10.5,2.4,–,–,–
NCC12C3CCC4C3C3C(CCC31)C42,12.8,12,–,–,–,–
NC12C3CCC4C3C3C(CCC31)C42,4.8,> 500,–,–,–,–
C1CC2C3C4C5CCC4C24CNCC54C13,39.7,–,–,–,–,–
